Read-outs that look alike come from different tables or passages of the source.
How the values were obtained:
HIV-1 WT = experiment: Single-cycle drug susceptibility assay (MAGIC-5 cells), recombinant WT clone; assay type: cell-based; conditions: Human immunodeficiency virus 1, Table S2
Procedure: (§1) The NL4-3-based molecular clone was constructed by replacing the pol-coding region with the HIV-1 BH10 strain. […] Each molecular clone was transfected into COS-7 cells. Cells were grown for 48 h, and culture supernatants were harvested and stored at −80°C until use.
(§2) Susceptibilities to various RT inhibitors were determined using the MAGIC-5 cells which are HeLa cells stably transfected with a β-galactosidase gene under the control of an HIV long terminal repeat promoter, and with vectors that express the CD4 receptor and the CCR5 co-receptor under the control of the CMV promoter as described previously. Briefly, MAGIC-5 cells were infected with diluted virus stock (100 blue forming units) in the presence of increasing concentrations of RT inhibitors, cultured for 48 h, fixed, and stained with X-Gal (5-bromo-4-chloro-3-indolyl-β-D-galacto-pyranoside). The stained cells were counted under a light microscope.

[1] = tested on: HIV-1 clinical isolate 2 (Q151Mc + K70Q); experiment: Single-cycle drug susceptibility assay (MAGIC-5 cells), clinical isolate 2; assay type: cell-based; conditions: Human immunodeficiency virus 1; clinical isolate 2, MAGIC-5 cells
Procedure: (§3) HIV was isolated from fresh plasma immediately after collection of clinical samples from study participants at the outpatient clinic of the AIDS Clinical Center (ACC), International Medical Center of Japan. The Institutional Review Board approved this study (IMCJ-H13-80) and a written consent was obtained from all participants.
as §2

HIV-1 NL4-3 strain (WT) = experiment: microbe, parasite or virus in culture; assay type: cell-based; conditions: Human immunodeficiency virus 1, NL43; WT, MAGIC-5 cells, Table S1; read-out: EC50
Procedure: as §2

[2] = tested on: HIV-1 clinical isolate 1 (Q151Mc-containing); experiment: Single-cycle drug susceptibility assay (MAGIC-5 cells), clinical isolate 1; assay type: cell-based; conditions: Human immunodeficiency virus 1; clinical isolate 1, MAGIC-5 cells
Procedure: as §3, §2

HIV-1 Q151Mc/K70N = experiment: Single-cycle drug susceptibility assay (MAGIC-5 cells); assay type: cell-based; conditions: for EC50: Human immunodeficiency virus 1, MAGIC-5, Q151Mc/K70N; for Fold increase in EC50 compared to HIV-1 Q151Mc: Q151Mc/K70N vs Q151Mc
Procedure: as §1, §2

HIV-1 Q151Mc/K70E = experiment: as above; assay type: cell-based; conditions: for EC50: Human immunodeficiency virus 1, MAGIC-5, Q151Mc/K70E; for Fold increase in EC50 compared to HIV-1 Q151Mc: Q151Mc/K70E vs Q151Mc
Procedure: as §1, §2

HIV-1 K70Q = experiment: as above; assay type: cell-based; conditions: for EC50: Human immunodeficiency virus 1, MAGIC-5, K70Q
Procedure: as §1, §2

HIV-1 K70T = experiment: as above; assay type: cell-based; conditions: for EC50: Human immunodeficiency virus 1, MAGIC-5, K70T; for Fold increase in EC50 compared to HIV-1 WT: K70T vs WT
Procedure: as §1, §2

HIV-1 Q151Mc/K70Q = experiment: as above; assay type: cell-based; conditions: for EC50: Human immunodeficiency virus 1, MAGIC-5, Q151Mc/K70Q
Procedure: as §1, §2

HIV-1 K70G = experiment: as above; assay type: cell-based; conditions: for EC50: Human immunodeficiency virus 1, MAGIC-5, K70G; for Fold increase in EC50 compared to HIV-1 WT: K70G vs WT
Procedure: as §1, §2

HIV-1 K70E = experiment: as above; assay type: cell-based; conditions: for EC50: Human immunodeficiency virus 1, MAGIC-5, K70E; for Fold increase in EC50 compared to HIV-1 WT: K70E vs WT
Procedure: as §1, §2

HIV-1 Q151Mc [3] = experiment: as above; assay type: cell-based; conditions: Human immunodeficiency virus 1, MAGIC-5
Procedure: as §1, §2

HIV-1 K70R = experiment: as above; assay type: cell-based; conditions: for EC50: Human immunodeficiency virus 1, MAGIC-5, K70R; for Fold increase in EC50 compared to HIV-1 WT: K70R vs WT
Procedure: as §1, §2

HIV-1 Q151Mc/K70R = experiment: as above; assay type: cell-based; conditions: for EC50: Human immunodeficiency virus 1, MAGIC-5, Q151Mc/K70R; for Fold increase in EC50 compared to HIV-1 Q151Mc: Q151Mc/K70R vs Q151Mc
Procedure: as §1, §2

HIV-1 Q151Mc/K70G = experiment: as above; assay type: cell-based; conditions: for EC50: Human immunodeficiency virus 1, MAGIC-5, Q151Mc/K70G; for Fold increase in EC50 compared to HIV-1 Q151Mc: Q151Mc/K70G vs Q151Mc
Procedure: as §1, §2

HIV-1 Q151Mc/K70T = experiment: as above; assay type: cell-based; conditions: for EC50: Human immunodeficiency virus 1, MAGIC-5, Q151Mc/K70T; for Fold increase in EC50 compared to HIV-1 Q151Mc: Q151Mc/K70T vs Q151Mc
Procedure: as §1, §2

HIV-1 K70N = experiment: as above; assay type: cell-based; conditions: for EC50: Human immunodeficiency virus 1, MAGIC-5, K70N; for Fold increase in EC50 compared to HIV-1 WT: K70N vs WT
Procedure: as §1, §2

HIV-1 Q151Mc [4] = conditions: cited from earlier work; for Increase in resistance: Q151Mc
HIV-1 RT WT = biological target: T1, HIV-1 RT WT (Human immunodeficiency virus type 1 group M subtype B, UniProt P03366); experiment: ATP-dependent rescue assay; assay type: biochemical; conditions: rescue of TFV-terminated primer, 30 minutes, read-out: apparent KD-ATP
T1 construct: made in house; host or cells: Escherichia coli BL21
Procedure: (§4) Template/primer (T31/P18) terminated with TFV (T/PTFV) was prepared as described in Michailidis et al. 20 nM of T/PTFV was incubated at 37°C with HIV-1 RT (60 nM), either at various concentrations of ATP (0–7 mM) for 30 minutes, or for various times (0–120 minutes) with 3.5 mM ATP, in RT buffer containing 50 mM Tris-HCl, pH 7.8, and 50 mM NaCl, and 10 mM MgCl2. […] Reactions were quenched with 100% formamide containing traces of bromophenol blue and analyzed as described above. The dissociation constants (Kd) of the various enzymes for ATP used in the rescue reactions were determined by fitting the rescue data at various ATP concentrations, using non-linear regression fitting to hyperbola.

HIV-1 RT Q151Mc [5] = biological target: T2, HIV-1 RT Q151Mc (Human immunodeficiency virus type 1 group M subtype B, UniProt P03366, A661V/F676L/F715Y/Q750M/V674I); experiment: ATP-dependent rescue assay; assay type: biochemical
T2 construct: made in house; host or cells: Escherichia coli BL21
Procedure: as §4

HIV-1 RT K70Q [6] = biological target: T3, HIV-1 RT K70Q (Human immunodeficiency virus type 1 group M subtype B, UniProt P03366, K669Q); experiment: ATP-dependent rescue assay; assay type: biochemical
T3 construct: made in house; host or cells: Escherichia coli BL21
Procedure: as §4

HIV-1 RT K70Q/Q151Mc [7] = biological target: T4, HIV-1 RT K70Q/Q151Mc (Human immunodeficiency virus type 1 group M subtype B, UniProt P03366, A661V/F676L/F715Y/K669Q/Q750M/V674I); experiment: ATP-dependent rescue assay; assay type: biochemical
T4 construct: made in house; host or cells: Escherichia coli BL21
Procedure: as §4

HIV-1 RT K70Q/Q151Mc [8] = experiment: ATP-dependent rescue assay; assay type: biochemical; conditions: WT RT vs K70Q/Q151Mc RT, TFV-terminated primers, 3.5 mM ATP
Procedure: as §4

HIV-1 RT Q151Mc [9] = experiment: ATP-dependent rescue assay; assay type: biochemical; conditions: WT RT vs Q151Mc RT, TFV-terminated primers, 3.5 mM ATP
Procedure: as §4

HIV-1 RT K70Q [10] = experiment: ATP-dependent rescue assay; assay type: biochemical; conditions: WT RT vs K70Q RT, TFV-terminated primers, 3.5 mM ATP
Procedure: as §4

Structure (SMILES)	EC50 (HIV-1 WT)	EC50 [1]	EC50 (HIV-1 NL4-3 strain (WT))	EC50 [2]	EC50 (HIV-1 Q151Mc/K70N)	Fold increase in EC50 compared to HIV-1 Q151Mc (HIV-1 Q151Mc/K70N)	EC50 (HIV-1 Q151Mc/K70E)	Fold increase in EC50 compared to HIV-1 Q151Mc (HIV-1 Q151Mc/K70E)	EC50 (HIV-1 K70Q)	EC50 (HIV-1 K70T)	Fold increase in EC50 compared to HIV-1 WT (HIV-1 K70T)	EC50 (HIV-1 Q151Mc/K70Q)	EC50 (HIV-1 K70G)	Fold increase in EC50 compared to HIV-1 WT (HIV-1 K70G)	EC50 (HIV-1 K70E)	Fold increase in EC50 compared to HIV-1 WT (HIV-1 K70E)	EC50 (HIV-1 Q151Mc [3])	EC50 (HIV-1 K70R)	Fold increase in EC50 compared to HIV-1 WT (HIV-1 K70R)	EC50 (HIV-1 Q151Mc/K70R)	further results
Nc1nc(NC2CC2)c2ncn([C@H]3C=C[C@@H](CO)C3)c2n1 [ABC, abacavir]	1.8 ± 0.22 µM	24.7 ± 2.89 µM	1.6 ± 0.46 µM	16.3 ± 2.52 µM	16 ± 2.1 µM	(1.1) fold	34 ± 2.1 µM	(2.3) fold	3.5 ± 0.6 µM	2.6 ± 0.21 µM	(1.4) fold	24 ± 2.9 µM	6.6 ± 0.29 µM	(3.7) fold	7.3 ± 0.12 µM	(4.1) fold	15 ± 2.1 µM	2.8 ± 0.31 µM	(1.6) fold	14 ± 1 µM	Fold increase in EC50 compared to HIV-1 WT (HIV-1 K70Q; K70Q vs WT): (1.9) fold; Fold increase in EC50 compared to HIV-1 Q151Mc (HIV-1 Q151Mc/K70Q; Q151Mc/K70Q vs Q151Mc): (1.6) fold; Fold increase in EC50 compared to HIV-1 Q151Mc (HIV-1 Q151Mc/K70R): (0.9) fold; EC50 (HIV-1 Q151Mc/K70G): 35 ± 2.7 µM; Fold increase in EC50 compared to HIV-1 Q151Mc (HIV-1 Q151Mc/K70G): (2.5) fold; EC50 (HIV-1 Q151Mc/K70T): 25 ± 2.3 µM; Fold increase in EC50 compared to HIV-1 Q151Mc (HIV-1 Q151Mc/K70T): (1.7) fold; EC50 (HIV-1 K70N): 3.2 ± 0.3 µM; Fold increase in EC50 compared to HIV-1 WT (HIV-1 K70N): (1.8) fold; Resistance (HIV-1 Q151Mc [4]; Q151M plus the four associated mutations ref 17, 18, 19, 20, 21): 5 fold
Nc1ncnc2c1ncn2[C@@H]1O[C@H](COP(=O)(O)OP(=O)(O)OP(=O)(O)O)[C@@H](O)[C@H]1O [ATP, adenosine triphosphate]	–	–	–	–	–	–	–	–	–	–	–	–	–	–	–	–	–	–	–	–	Kd (HIV-1 RT WT): 400 µM; Kd (HIV-1 RT Q151Mc [5]): 2300 µM; Kd (HIV-1 RT K70Q [6]): 700 µM; Kd (HIV-1 RT K70Q/Q151Mc [7]): 3100 µM
C[C@H](Cn1cnc2c(N)ncnc21)OCP(=O)(O)O [TFV, tenofovir]	–	–	–	–	–	–	–	–	–	–	–	–	–	–	–	–	–	–	–	–	ATP-based rescue activity of WT RT, fold faster than mutant RT (HIV-1 RT K70Q/Q151Mc [8]): 3 fold; ATP-based rescue activity of WT RT, fold faster than mutant RT (HIV-1 RT Q151Mc [9]): 2.5 fold; ATP-based rescue activity of WT RT, fold faster than mutant RT (HIV-1 RT K70Q [10]): 1.5 fold; Increase in resistance (HIV-1 Q151Mc [4]; Miller et al. ref 22): 1.8 fold; Increase in resistance (HIV-1 Q151Mc [4]; Smith et al. ref 23): 3.6 fold
O=c1[nH]cnc2c1ncn2[C@H]1CC[C@@H](CO)O1 [ddI, didanosine]	2.4 ± 0.26 µM	> 100 µM	2.5 ± 0.35 µM	29.3 ± 3.06 µM	109 ± 4.4 µM	(2.4) fold	30 ± 1.7 µM	(0.7) fold	12 ± 1.7 µM	8.9 ± 0.31 µM	(3.7) fold	108 ± 2.5 µM	16 ± 1.5 µM	(6.7) fold	13 ± 3.5 µM	(5.4) fold	45 ± 1 µM	3.3 ± 0.29 µM	(1.4) fold	53 ± 3.1 µM	Fold increase in EC50 compared to HIV-1 Q151Mc (HIV-1 Q151Mc/K70R): (1.2) fold; EC50 (HIV-1 Q151Mc/K70G): 59 ± 5 µM; Fold increase in EC50 compared to HIV-1 Q151Mc (HIV-1 Q151Mc/K70G): (1.3) fold; EC50 (HIV-1 Q151Mc/K70T): 13 ± 1.5 µM; Fold increase in EC50 compared to HIV-1 Q151Mc (HIV-1 Q151Mc/K70T): (0.3) fold; EC50 (HIV-1 K70N): 3.7 ± 0.32 µM; Fold increase in EC50 compared to HIV-1 WT (HIV-1 K70N): (1.5) fold

Reference: publication PMC3020970, “K70Q Adds High-Level Tenofovir Resistance to “Q151M Complex” HIV Reverse Transcriptase through the Enhanced Discrimination Mechanism” (PLoS ONE, 2011)
